Measured values: patent US8592421B2, “Cyclic bioisosters of purine system derivatives and a pharmaceutical composition based thereon” (priority 2003, dated 2013)

Tests used:
[1] = Chronic toxicity of suppositories: biochemical indexes of blood serum; assay type: in vivo, rats;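 note: inbred rats dosed rectally with softened suppositories, controls given matching volumes of sterile medical liquid paraffin, serum sampled one month into a two-month dosing course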
Experimental: Two doses of preparations used in the experiments: 50 mg/kg and 500 mg/kg. Before the administration, the suppositories were softened by heating in a glass water bath at a temperature of 38-39° C., the soft mass was collected in tuberculin syringe in a volume of 1 ml, a needle with oliva was attached to the syringe, and the preparatory mass was introduced into the rectum of the animal for a depth of 1.5-2.0 cm. The animals of the control group were administered with sterile medical liquid paraffin in a volume corresponding to the volume of the investigated suppository. A complete course of administration of drugs to the animals was two months. A complex of laboratory diagnostic investigations was carried out one month after the beginning of the administration of the preparation to the animal—in a middle of the course (8 animals), two months after ending the course (8 animals) and three months after ending the recovery period of one month (8 animals). The mass of the body of the rats in the first month of administration of the preparation was determined weekly, and then once in two weeks. On the basis of the dynamics of an index of the mass of the animal body, the volume of preparation being administered was corrected taking into account the test dose.

[2] = Morphine abstinence model: indicator enzymes ALT, AST, γ-GTP in blood plasma; settings: 20.0 mg/kg intramuscularly three times a day; for γ-GTP in blood plasma, Ci: control 6.261 ± 1.80; for ALT in blood plasma, Ci: control 106.76 ± 111.35; for AST in blood plasma, Ci: control 179.881 ± 11.94
Experimental: The experiments were carried out on rats in series of 7 animals on each compound according to the invention. Non-morphinized animal with not administered with compounds according to the invention were used as a control group. […] Then the rats were decapitated, the blood from somnolent arteries was collected in test tubes with solution EDTA as an anticoagulant, centrifuged at 1500 g for 15 minutes at 4° C.
To estimate possible hepatoprotective action of the compounds according to the invention under conditions of development of an oxidizing stress in the liver cells, effect of these compounds on the most important biochemical blood indexes, in particular, on the content in blood plasma of indicator enzyme of aspartateaminotransferase (AST), alanineaminotransferase (ALT), γ-glutamiletranspeptidase (γ-GTP) was investigated. The content of enzymes was estimated by their catalyzing activity in blood plasma.
The activity of AST, ALT and γ-GTP was determined by means of diagnostic sets DiaSys, Germany.

[3] = system: synthase of nitrogen oxide (NOC); experiment: Morphine abstinence model: activity of synthase of nitrogen oxide (NOC), radiometric [3H]L-citrulline method; assay type: in vivo, rats Wistar; settings: 20.0 mg/kg intramuscularly; for Activity of NOC: Mesencephalon: control 2.18 ± 0.09; for Activity of NOC: Hypothalamus: control 5.37 ± 0.20
[4] = Chronic toxicity of suppositories: indexes of urine; assay type: in vivo, rats
Experimental: The experiments were conducted on inbred rats.

[5] = Morphine abstinence model: thymus condition (mass, nitrites); assay type: in vivo, rats; settings: for Nitrites in thymus supernatant: control 0.331 ± 0.041; for Thymus mass: control 230 ± 14
Text: The spectrometric method is based the reaction of nitrites with the Griss reagent (a mixture of 2% solution of sulfanilamide and 0.2% N-(1-naphthyl)ethylene diamine. At the first step the nitrite reacts with sulfanilamide with formation of diazonium salt, and then with the second component to form azo dye with an adsorption maximum at 540 nm. For reduction of nitrates into nitrites, a fermentative method was used with bacterial reductase nitrate (Grisham M. B. et al., 1995). The samples of plasma and supernathant of the liver deproteinizated at 100° C. for 5 minutes incubated for 30 minutes at 37° C. in 50.0 mM of HEPES pH 7.4 in the presence of 0.2 unit/ml of Aspergillus reductase nitrate, 5.0 mkM of FAD and 0.1 mM of NAD-Ph. At the end of the reaction lactate dehydrogenase and pyruvate were added for isolation of NAD-Ph interfering with the Griss reaction. Then the Griss reagent was added and after 10-minute incubation the light absorption of the samples was measured at 540 nm. To amount of NOX^− was calculated using sodium nitrate as a standard.
The effect of the compounds according to the invention on the condition of the thymus of the rats was also investigated: a control group, an experimental group of morphinized animals and an experimental group of animals were first morphinized and then injected with the compounds according to the invention. The experiment was carried out similarly to that described above.

[6] = rats, suppositories rectal, dose 50 mg/kg, 1 month after administration
[7] = rats, suppositories rectal, dose 500 mg/kg, 1 month after administration
[8] = Administration of morphine and compound

Nc1cccc2c(=O)[nH][nH]c(=O)c12.[Na] [Compound 15, sodium salt of 5-amino-benzo[d]-3H-pyridazine-1,4-dione]
Cholesterol in blood serum ([1]; male rats, suppositories, 50 mg/kg, 1 month, control 3.02 ± 0.08): 2.01 ± 0.50 mmol/L
Urea in blood serum ([1]; male rats, suppositories, 50 mg/kg, 1 month, control 8.44 ± 0.60): 10.33 ± 0.51 Mkmol/l
Glucose in blood serum ([1]; male rats, suppositories, 50 mg/kg, 1 month, control 9.76 ± 0.15): 10 ± 0.41 mM
ALT in blood serum ([1]; male rats, suppositories, 50 mg/kg, 1 month, control 11.33 ± 1.96): 7.63 ± 1.95 unit/l
AST in blood serum ([1]; male rats, suppositories, 50 mg/kg, 1 month, control 19.13 ± 1.02): 19.49 ± 2.90 unit/1
Bilirubin in blood serum ([1]; male rats, suppositories, 50 mg/kg, 1 month, control 35.93 ± 2.19): 43.07 ± 3.57 mmol/L
Creatinine in blood serum ([1]; male rats, suppositories, 50 mg/kg, 1 month, control 40.23 ± 2.84): 45.59 ± 2.68 mkmol/l
Alkalinous phosphatase in blood serum ([1]; male rats, suppositories, 50 mg/kg, 1 month, control 40.74 ± 1.57): 40.74 ± 6.78 unit/l
Total protein in blood serum ([1]; male rats, suppositories, 50 mg/kg, 1 month, control 94.89 ± 6.67): 90.22 ± 6.78 g/L
Cholesterol in blood serum ([1]; male rats, suppositories, 500 mg/kg, 1 month, control 3.02 ± 0.08): 2.30 ± 0.57 mmol/L
Urea in blood serum ([1]; male rats, suppositories, 500 mg/kg, 1 month, control 8.44 ± 0.60): 10.89 ± 0.73 Mkmol/l
Glucose in blood serum ([1]; male rats, suppositories, 500 mg/kg, 1 month, control 9.76 ± 0.15): 10.7 ± 0.41 mM
ALT in blood serum ([1]; male rats, suppositories, 500 mg/kg, 1 month, control 11.33 ± 1.96): 9.48 ± 1.85 unit/l
AST in blood serum ([1]; male rats, suppositories, 500 mg/kg, 1 month, control 19.13 ± 1.02): 15.14 ± 1.58 unit/1
Bilirubin in blood serum ([1]; male rats, suppositories, 500 mg/kg, 1 month, control 35.93 ± 2.19): 40.69 ± 15.75 mmol/L
Creatinine in blood serum ([1]; male rats, suppositories, 500 mg/kg, 1 month, control 40.23 ± 2.84): 48.27 ± 12.29 mkmol/l
Alkalinous phosphatase in blood serum ([1]; male rats, suppositories, 500 mg/kg, 1 month, control 40.74 ± 1.57): 41.60 ± 2.26 unit/l
Total protein in blood serum ([1]; male rats, suppositories, 500 mg/kg, 1 month, control 94.89 ± 6.67): 71.56 ± 8.23 g/L
γ-GTP in blood plasma, Ci ([2]; Control + compound): 7.03 ± 2.82 mE/l
ALT in blood plasma, Ci ([2]; Control + compound): 113.48 ± 2.39 mE/l
AST in blood plasma, Ci ([2]; Control + compound): 173.46 ± 5.63 mE/l
γ-GTP in blood plasma, Ci ([2]; control + Morphine + Compound): 10.69 ± 1.84 mE/l
ALT in blood plasma, Ci ([2]; control + Morphine + Compound): 121.08 ± 5.04 mE/l
AST in blood plasma, Ci ([2]; control + Morphine + Compound): 195.57 ± 18.68 mE/l
Activity of NOC: Mesencephalon ([3]; Control + Compound): 2.60 ± 0.29 pmol/min/mg of protein
Activity of NOC: Hypothalamus ([3]; Control + Compound): 5.45 ± 0.24 pmol/min/mg of protein
Activity of NOC: Mesencephalon ([3]; Control + Morphine + compound): 1.83 ± 0.23 pmol/min/mg of protein
Activity of NOC: Hypothalamus ([3]; Control + Morphine + compound): 5.26 ± 0.28 pmol/min/mg of protein
Bilirubin (urine) [4, 6]: <5 Mkmol/l
Glucose (urine) [4, 6]: <6 mmol/L
Ketone bodies (urine) [4, 6]: <1 mmol/L
Potassium (urine) [4, 6]: 5.28 ± 1.5 g/L
Protein (urine) [4, 6]: 0.71 ± 0.274 g/L
Sodium (urine) [4, 6]: 1.2 ± 0.4 g/L
Urea (urine) [4, 6]: 413 ± 128 mmol/L
Urobilinogen (urine) [4, 6]: <17 Mkmol/l
pH (urine) [4, 6]: 6.3 ± 0.4
Bilirubin (urine) [4, 7]: <5 Mkmol/l
Glucose (urine) [4, 7]: <6 mmol/L
Ketone bodies (urine) [4, 7]: <1 mmol/L
Potassium (urine) [4, 7]: 6.13 ± 1.6 g/L
Protein (urine) [4, 7]: 0.87 ± 0.24 g/L
Sodium (urine) [4, 7]: 0.64 ± 0.4 g/L
Urea (urine) [4, 7]: 485 ± 131 mmol/L
Urobilinogen (urine) [4, 7]: <17 Mkmol/l
pH (urine) [4, 7]: 6.2 ± 0.3
Nitrites in thymus supernatant ([5]; Administration of compounds): 0.407 ± 0.02 nmol/mg of protein
Thymus mass ([5]; Administration of compounds): 298 ± 25 mg
Nitrites in thymus supernatant [5, 8]: 0.383 ± 0.02 nmol/mg of protein
Thymus mass [5, 8]: 214 ± 12 mg

Nc1ccnc2c(=O)n([C@@H]3O[C@H](CO)[C@@H](O)[C@H]3O)[nH]c(=O)c12 [Compound 2, 4-amino-7-(β-D-ribofuranosile)pyrido[2,3-d]-6H-pyridazine-5,8-dione]
ALT in blood serum ([1]; rat, in vivo, 50 mg/kg): 10.84 ± 2.02 unit/l
AST in blood serum ([1]; rat, in vivo, 50 mg/kg): 20.41 ± 3.06 unit/1
Alkalinous phosphatase in blood serum ([1]; rat, in vivo, 50 mg/kg): 42.12 ± 4.23 unit/l
Bilirubin in blood serum ([1]; rat, in vivo, 50 mg/kg): 44.38 ± 4.12 mmol/L
Cholesterol in blood serum ([1]; rat, in vivo, 50 mg/kg): 2.77 ± 0.71 mmol/L
Creatinine in blood serum ([1]; rat, in vivo, 50 mg/kg): 47.38 ± 3.26 mkmol/l
Glucose in blood serum ([1]; rat, in vivo, 50 mg/kg): 9.85 ± 0.37 mM
Total protein in blood serum ([1]; rat, in vivo, 50 mg/kg): 87.34 ± 5.56 g/L
Urea in blood serum ([1]; rat, in vivo, 50 mg/kg): 11.02 ± 0.73 Mkmol/l
ALT in blood serum ([1]; rat, in vivo, 500 mg/kg): 11.23 ± 1.70 unit/l
AST in blood serum ([1]; rat, in vivo, 500 mg/kg): 20.13 ± 2.95 unit/1
Alkalinous phosphatase in blood serum ([1]; rat, in vivo, 500 mg/kg): 43.4 ± 2.12 unit/l
Bilirubin in blood serum ([1]; rat, in vivo, 500 mg/kg): 42.56 ± 7.56 mmol/L
Cholesterol in blood serum ([1]; rat, in vivo, 500 mg/kg): 2.96 ± 0.52 mmol/L
Creatinine in blood serum ([1]; rat, in vivo, 500 mg/kg): 49.87 ± 8.12 mkmol/l
Glucose in blood serum ([1]; rat, in vivo, 500 mg/kg): 10.2 ± 0.74 mM
Total protein in blood serum ([1]; rat, in vivo, 500 mg/kg): 70.84 ± 7.47 g/L
Urea in blood serum ([1]; rat, in vivo, 500 mg/kg): 11.30 ± 0.80 Mkmol/l
Bilirubin (urine) ([4]; rat, in vivo, 50 mg/kg): <5 Mkmol/l
Glucose (urine) ([4]; rat, in vivo, 50 mg/kg): <5 mmol/L
Ketone bodies (urine) ([4]; rat, in vivo, 50 mg/kg): <1 mmol/L
Potassium (urine) ([4]; rat, in vivo, 50 mg/kg): 5.78 ± 1.7 g/L
Protein (urine) ([4]; rat, in vivo, 50 mg/kg): 0.69 ± 0.33 g/L
Sodium (urine) ([4]; rat, in vivo, 50 mg/kg): 1.7 ± 0.3 g/L
Urea (urine) ([4]; rat, in vivo, 50 mg/kg): 457 ± 144 mmol/L
Urobilinogen (urine) ([4]; rat, in vivo, 50 mg/kg): <16 Mkmol/l
pH (urine) ([4]; rat, in vivo, 50 mg/kg): 6.1 ± 0.3
Bilirubin (urine) ([4]; rat, in vivo, 500 mg/kg): <5 Mkmol/l
Glucose (urine) ([4]; rat, in vivo, 500 mg/kg): <5 mmol/L
Ketone bodies (urine) ([4]; rat, in vivo, 500 mg/kg): <1 mmol/L
Potassium (urine) ([4]; rat, in vivo, 500 mg/kg): 6.24 ± 1.8 g/L
Protein (urine) ([4]; rat, in vivo, 500 mg/kg): 0.76 ± 0.31 g/L
Sodium (urine) ([4]; rat, in vivo, 500 mg/kg): 1.27 ± 0.3 g/L
Urea (urine) ([4]; rat, in vivo, 500 mg/kg): 492 ± 187 mmol/L
Urobilinogen (urine) ([4]; rat, in vivo, 500 mg/kg): <16 Mkmol/l
pH (urine) ([4]; rat, in vivo, 500 mg/kg): 6.2 ± 0.2
